Measurements: ChEMBL document CHEMBL1201862, “PubChem BioAssay data set” (2004)
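Following 48 hours of exposure in 96-well plates, responses at five concentrations were used to interpolate endpoints linearly. GI50 is the concentration that inhibits growth by half.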 Activity calls are given as the source filed them. No stated cut-off is given here; in the data, active = GI50 up to about 1.1 µM and inactive = higher.

Columns and labels:
Assay in all cases: NCI anticancer screen, dose series, 48 h
[1] = system: T47D
[2] = system: RXF 393
[3] = system: MDA-MB-231
[4] = system: SF-268
[5] = system: MOLT-4
[6] = system: BT-549
[7] = system: HL-60
[8] = system: TK-10
[9] = system: MDA-MB-435
[10] = system: NCI-H226
[11] = system: UACC-257
[12] = system: OVCAR-3
[13] = system: COLO 205
[14] = system: Malme-3M
[15] = system: SK-MEL-28
[16] = system: SK-MEL-2
[17] = system: 786-0
[18] = system: U-251
[19] = system: ACHN
[20] = system: MCF7

| Structure (SMILES) | GI50 [1] | GI50 [2] | GI50 [3] | GI50 [4] | GI50 [5] | GI50 [6] | GI50 [7] | GI50 [8] | GI50 [9] | GI50 [10] | GI50 [11] | GI50 [12] | GI50 [13] | GI50 [14] | GI50 [15] | GI50 [16] | GI50 [17] | GI50 [18] | GI50 [19] | GI50 [20] |
| --- | --- | --- | --- | --- | --- | --- | --- | --- | --- | --- | --- | --- | --- | --- | --- | --- | --- | --- | --- | --- |
| N=c1c2c(=S)n(-c3ccccc3)c(=S)n(-c3ccccc3)c2nc(SCCN2CCCC2)n1-c1ccccc1 | 2.8 µM (inactive) | 1.41 µM (inactive) | 1.78 µM (inactive) | 2.7 µM (inactive) | 0.08 µM (active) | 1.92 µM (inactive) | 0.183 µM (active) | 1.59 µM (inactive) | 1.87 µM (inactive) | 7.59 µM (inactive) | 1.61 µM (inactive) | 1.68 µM (inactive) | 1.55 µM (inactive) | 2.17 µM (inactive) | 3.69 µM (inactive) | 5.94 µM (inactive) | 0.622 µM (active) | 2.52 µM (inactive) | 1.77 µM (inactive) |  |
| O=[N+]([O-])c1ccc(-c2ccc([C@H]3CC(c4cc(F)c(Cl)cc4Cl)=NN3)o2)cc1 | 5.48 µM (inactive) | 39.2 µM (inactive) |  | 19.1 µM (inactive) | 1.95 µM (inactive) | 25.4 µM (inactive) | 1.06 µM (active) | 31.8 µM (inactive) | 26.7 µM (inactive) | 21.9 µM (inactive) | 49.4 µM (inactive) | 45.2 µM (inactive) |  | 19.2 µM (inactive) |  |  | 23.7 µM (inactive) |  | 32.1 µM (inactive) | 16.7 µM (inactive) |
| COc1ccc(O)c(C#N)c1C#N.COc1ccc(OC)c(C#N)c1C#N |  | > 100 µM (inactive) |  | > 100 µM (inactive) | > 100 µM (inactive) |  | > 100 µM (inactive) |  |  | > 100 µM (inactive) | > 100 µM (inactive) | > 100 µM (inactive) | > 100 µM (inactive) | > 100 µM (inactive) | > 100 µM (inactive) | > 100 µM (inactive) |  | > 100 µM (inactive) |  | > 100 µM (inactive) |
| CCN1C(=O)/C(=C/Nc2ccccc2)S/C1=N/Nc1nc(-c2ccc(O)c(O)c2)cs1 |  | 3.39 µM (inactive) | 6.65 µM (inactive) | 23.4 µM (inactive) | 5.53 µM (inactive) |  | 2.33 µM (inactive) | 38.5 µM (inactive) | 1.71 µM (inactive) | 51.5 µM (inactive) | 6.44 µM (inactive) | 5.69 µM (inactive) | 35.5 µM (inactive) | 6.19 µM (inactive) | 7.59 µM (inactive) | 4.31 µM (inactive) | 23 µM (inactive) | 6.56 µM (inactive) | 15.3 µM (inactive) | 4 µM (inactive) |
| C/C(=N\Nc1nc2ccccc2s1)c1cccnn1 |  | 17.1 µM (inactive) | 2.28 µM (inactive) | 1.56 µM (inactive) | 3.91 µM (inactive) | 5.32 µM (inactive) |  |  | 4.26 µM (inactive) | 2.75 µM (inactive) | 2.48 µM (inactive) | 0.406 µM (active) | 2.48 µM (inactive) |  | 4.56 µM (inactive) | 3.05 µM (inactive) | 1.26 µM (inactive) | 3.68 µM (inactive) | 0.718 µM (active) | 2.75 µM (inactive) |
| N=C(N)NS(=O)(=O)c1ccc(NCCc2c3ccccc3nc3ccccc23)cc1 |  | > 100 µM (inactive) |  | > 100 µM (inactive) | 22.8 µM (inactive) |  | 19.4 µM (inactive) | > 100 µM (inactive) |  | > 100 µM (inactive) | 52.5 µM (inactive) | > 100 µM (inactive) | 76 µM (inactive) | > 100 µM (inactive) | > 100 µM (inactive) | > 100 µM (inactive) | > 100 µM (inactive) | > 100 µM (inactive) | > 100 µM (inactive) |  |
| CC(C)Cc1ccc(C(C)/C=C2\CCC(CN3CCCC3)C2=O)cc1 (stereo not given) |  | 18.8 µM (inactive) |  | 3.98 µM (inactive) | 2.67 µM (inactive) |  | 1.89 µM (inactive) | 3.69 µM (inactive) |  | 18.1 µM (inactive) | 16.7 µM (inactive) | 3.69 µM (inactive) | 4.5 µM (inactive) | 20.4 µM (inactive) | 14.6 µM (inactive) | 17.7 µM (inactive) | 1.85 µM (inactive) | 5.87 µM (inactive) | 11.7 µM (inactive) |  |
| CCOc1ccc2nc(NC(=O)c3c/c(=N\NC(=O)C[N+](C)(C)C)c4ccc(O)cc4o3)sc2c1 |  | 5.87 µM (inactive) |  | 3.29 µM (inactive) | 1.72 µM (inactive) |  | 1.59 µM (inactive) | 21.7 µM (inactive) |  | 3.25 µM (inactive) | 1.49 µM (inactive) | 0.13 µM (active) | 1.63 µM (inactive) | 1.28 µM (inactive) | 5.75 µM (inactive) | 2.43 µM (inactive) | 3.62 µM (inactive) | 2.89 µM (inactive) | 4.52 µM (inactive) |  |
| COc1cc(OC)c2nc(C)c(CCCl)c(Cl)c2c1 |  | > 100 µM (inactive) | > 100 µM (inactive) | > 100 µM (inactive) | > 100 µM (inactive) | > 100 µM (inactive) | > 100 µM (inactive) | > 100 µM (inactive) | > 100 µM (inactive) | > 100 µM (inactive) | > 100 µM (inactive) | > 100 µM (inactive) | > 100 µM (inactive) | > 100 µM (inactive) | > 100 µM (inactive) | > 100 µM (inactive) | > 100 µM (inactive) | > 100 µM (inactive) | > 100 µM (inactive) | > 100 µM (inactive) |
